# Measured values published in PMC3591457, “Biodistribution and Elimination Study of Fluorine-18 Labeled N^ε-Carboxymethyl-Lysine following Intragastric and Intravenous Administration” (PLoS ONE, 2013).
# Several values for one entry are separate records, joined by “and”; a condition that tells them apart may be missing. Equal values may be shown once.
# Experiments:
# [1] = microPET imaging after intragastric administration; type: in vivo, ICR mice
# Experimental: Male ICR mice weighing 18–20 g (7–8 wks old, n = 4) were kept fasting for 14 h […] and had free access to water before the experiments that followed. For the experiment, the mice were anesthetized and unconsciousness was maintained with a mixture of 1.5% isoflurane and nitrous oxide∶oxygen (7∶3). Approximately 3.0 MBq (80 µCi) of ^18F-labeled CML was administered via the gastrointestinal route. Five-minute static PET images were acquired at 15, 30, 60, 120 and 150 min post-injection.
# (§1) Dynamic PET studies were performed using a dedicated microPET scanner for small animals. For imaging studies, the animals were under isoflurane anesthesia and then positioned and immobilized supine with their medial axis parallel to the axial axis of the scanner with the thorax and abdominal region (organs of interest: heart, liver, and kidneys) in the center of the field of view.
# Approximately 5 min was needed to set the position of the animals after intragastric or intravenous administration of the drug solution containing ^18F-CML. Then, the emission data were acquired for 120 min. An attenuation map was created for each mouse by intravenously administering the residual ^18F-CML after acquisition of the emission data. […] The quantitative analyses of the hepatic and renal distributions of ^18F-CML were performed using ASIPro installed in the PET system.
# [2] = Biodistribution after intragastric administration; type: in vivo, ICR mice; conditions: for Uptake in bladder, percentage of injected dose per whole tissue / Uptake in brain, percentage of injected dose per whole tissue / Uptake in heart, percentage of injected dose per whole tissue / Uptake in intestines, percentage of injected dose per whole tissue / Uptake in kidneys, percentage of injected dose per whole tissue / Uptake in liver, percentage of injected dose per whole tissue / Uptake in lungs, percentage of injected dose per whole tissue / Uptake in muscles, percentage of injected dose per whole tissue / Uptake in pancreas, percentage of injected dose per whole tissue / Uptake in stomach, percentage of injected dose per whole tissue: intragastric administration, n=3, mean ± SD
# Experimental: (§2) The biodistribution of ^18F-CML was studied in eighteen young male ICR mice with a weight range of 18–20 g. Nine mice were used for intravenous administration and the other nine mice were used for intragastric administration.
# (§3) For intravenous administration, ^18F-CML was injected into a lateral tail vein of the animals under light ether anesthesia. The injection volume (2–3 MBq; radiochemical purity 96%) was 0.1 mL. For intragastric administration, 1.5 MBq of ^18F-labeled CML was given via gastrointestinal tract tract.
# (§4) The mice were sacrificed at 5, 60, and 120 min after administration of ^18F-CML (three mice at each time point). The animals were sacrificed by heart puncture under ether anaesthesia. The tissues and organs of interest were isolated and counted in a well-type γ counter. Additionally, 200 µL of blood was taken from the carotid artery. The distributions of ^18F-CML in different tissues and organs were calculated and expressed as the percent uptake of the injection dose per whole tissue (% ID).
# [3] = ^18F-CML in vivo stability in mice (radio-HPLC of plasma and urine); design: species or system ICR mice
# Experimental: The in vivo stability of the ^18F-CML in mice was determined using arterial blood and urine samples. Male ICR mice (n = 3) were anaesthetised with 2% vaporized isoflurane and injected with a dose of approximately 3.7 MBq of ^18F-CML in 250 µL of normal saline via the tail vein. […] Blood samples were removed immediately and centrifuged at 12,000 rpm for 2 min at 4°C to separate the plasma. The urinary bladder was carefully excised, and the urine was collected from the bladder. The plasma (30 µL) and an aliquot of the urine sample (20 µL) was injected into an HPLC column to analyze the in vivo stability of ^18F-CML in the mice.
# The HPLC analysis method was based on using trichloroacetic acid to precipitation plasma proteins, which were subsequently separated by reversed-phase column liquid chromatography using a 150 mm×4.6 mm C18 column with a mobile phase of […] acetonitrile and pure water (55%/45%) and detected based on UV absorbance at 254 nm. Radioactivity signal was detected by a radiochromatography detector (PTW, Freiburg, Germany). The ratio of unchanged ^18F-CML to total radioactivity on the HPLC chromatogram was calculated and expressed as a percentage.
# [4] = Biodistribution after intravenous administration; type: in vivo, ICR mice; conditions: for Uptake in bladder, percentage of injected dose per whole tissue / Uptake in brain, percentage of injected dose per whole tissue / Uptake in heart, percentage of injected dose per whole tissue / Uptake in intestines, percentage of injected dose per whole tissue / Uptake in kidneys, percentage of injected dose per whole tissue / Uptake in liver, percentage of injected dose per whole tissue / Uptake in lungs, percentage of injected dose per whole tissue / Uptake in muscles, percentage of injected dose per whole tissue / Uptake in pancreas, percentage of injected dose per whole tissue / Uptake in stomach, percentage of injected dose per whole tissue: intravenous administration, n=3, mean ± SD
# Experimental: as §2, §3, §4
# [5] = microPET imaging after intravenous administration; type: in vivo, ICR mice; conditions: after intravenous injection
# Experimental: After adjusting the animal board position, 0.15 mL of an ^18F-CML solution was administered intravenously via the tail vein. The solution of ^18F-CML was prepared just prior to the intravenous administration. The dose of ^18F-CML was adjusted to approximately 80 µCi per mouse (n = 4), and the pH of the solution was adjusted to 7.4. Here, the specific activity corresponded to 3 MBq/nmol. Dynamic PET images were acquired continuously for 2 hours.
# as §1
# Approximately 5 min was needed to set the position of the animals after intragastric or intravenous administration of the drug solution containing ^18F-CML. Then, the emission data were acquired for 120 min. An attenuation map was created for each mouse by intravenously administering the residual ^18F-CML after acquisition of the emission data. The acquired data were sorted into dynamic sinograms. […] The quantitative analyses of the hepatic and renal distributions of ^18F-CML were performed using ASIPro installed in the PET system.
# [6] = intravenous, 60 min post-injection
smiles,measurement,setting,value
O=C(O)CNCCCCC(NC(=O)c1ccc([18F])cc1)C(=O)O (centres unmarked) [^18F-CML],Localization of radioactivity (PET),[1]; first 15 min after administration via stomach tube,completely localized in the stomach
same,Resorption of radioactivity from the small intestine (PET),[1]; within 2 h after application via stomach tube,not observed
same,"Uptake in bladder, percentage of injected dose per whole tissue",[2]; 5 min,5.20±1.68 %ID
same,"Uptake in brain, percentage of injected dose per whole tissue",[2]; 5 min,1.04±0.02 %ID
same,"Uptake in heart, percentage of injected dose per whole tissue",[2]; 5 min,1.05±0.25 %ID
same,"Uptake in intestines, percentage of injected dose per whole tissue",[2]; 5 min,9.91±1.36 %ID
same,"Uptake in kidneys, percentage of injected dose per whole tissue",[2]; 5 min,2.20±0.95 %ID
same,"Uptake in liver, percentage of injected dose per whole tissue",[2]; 5 min,1.17±0.45 %ID
same,"Uptake in lungs, percentage of injected dose per whole tissue",[2]; 5 min,0.35±0.19 %ID
same,"Uptake in muscles, percentage of injected dose per whole tissue",[2]; 5 min,1.76±0.53 %ID
same,"Uptake in pancreas, percentage of injected dose per whole tissue",[2]; 5 min,0.2±0.01 %ID
same,"Uptake in stomach, percentage of injected dose per whole tissue",[2]; 5 min,76.85±7.01 %ID
same,"Uptake in bladder, percentage of injected dose per whole tissue",[2]; 60 min,12.21±1.62 %ID
same,"Uptake in brain, percentage of injected dose per whole tissue",[2]; 60 min,0.31±0.03 %ID
same,"Uptake in heart, percentage of injected dose per whole tissue",[2]; 60 min,0.75±0.52 %ID
same,"Uptake in intestines, percentage of injected dose per whole tissue",[2]; 60 min,52.29±8.71 %ID
same,"Uptake in kidneys, percentage of injected dose per whole tissue",[2]; 60 min,3.31±1.91 %ID
same,"Uptake in liver, percentage of injected dose per whole tissue",[2]; 60 min,1.0±0.12 %ID
same,"Uptake in lungs, percentage of injected dose per whole tissue",[2]; 60 min,0.51±0.11 %ID
same,"Uptake in muscles, percentage of injected dose per whole tissue",[2]; 60 min,2.16±1.82 %ID
same,"Uptake in pancreas, percentage of injected dose per whole tissue",[2]; 60 min,0.32±0.02 %ID
same,"Uptake in stomach, percentage of injected dose per whole tissue",[2]; 60 min,29.73±3.91 %ID
same,"Uptake in bladder, percentage of injected dose per whole tissue",[2]; 120 min,29.59±3.7 %ID
same,"Uptake in brain, percentage of injected dose per whole tissue",[2]; 120 min,0.02±0.01 %ID
same,"Uptake in heart, percentage of injected dose per whole tissue",[2]; 120 min,0.29±0.59 %ID
same,"Uptake in intestines, percentage of injected dose per whole tissue",[2]; 120 min,48.32±5.2 %ID
same,"Uptake in kidneys, percentage of injected dose per whole tissue",[2]; 120 min,2.1±0.29 %ID
same,"Uptake in liver, percentage of injected dose per whole tissue",[2]; 120 min,0.29±0.05 %ID
same,"Uptake in lungs, percentage of injected dose per whole tissue",[2]; 120 min,0.23±0.05 %ID
same,"Uptake in muscles, percentage of injected dose per whole tissue",[2]; 120 min,1.11±1.78 %ID
same,"Uptake in pancreas, percentage of injected dose per whole tissue",[2]; 120 min,0.05±0.00 %ID
same,"Uptake in stomach, percentage of injected dose per whole tissue",[2]; 120 min,17.87±2.1 %ID
same,Accumulation of radioactivity in the gastrointestinal tract,"[2]; intragastric, 60 min",approximately 82 % ID
same,Fraction excreted in the urine,"[2]; intragastric, 60 min",12 % ID
same,Blood uptake,"[2]; intragastric, 120 min, percentage of wet tissue",0.95±0.09 % ID
same,Metabolic products in the urine (radio HPLC),[3]; 40 min after injection,No metabolic products were observed
same,Radioactivity in an unchanged form in the plasma and urine (in vivo stability),"[3]; 60 min after tail vein injection, RP-HPLC",more than 98%
same,"Radioactivity in stomach, lungs, liver and intestines taken together, of the total injected dose",[4]; intravenous,less than 10%
same,"Uptake in bladder, percentage of injected dose per whole tissue",[4]; 5 min,26.50±1.70 %ID
same,"Uptake in brain, percentage of injected dose per whole tissue",[4]; 5 min,3.04±0.02 %ID
same,"Uptake in heart, percentage of injected dose per whole tissue",[4]; 5 min,11.15±0.05 %ID
same,"Uptake in intestines, percentage of injected dose per whole tissue",[4]; 5 min,1.02±0.05 %ID
same,"Uptake in kidneys, percentage of injected dose per whole tissue",[4]; 5 min,29.30 %ID and 29.30±2.05 %ID
same,"Uptake in liver, percentage of injected dose per whole tissue",[4]; 5 min,17.28±2.04 %ID
same,"Uptake in lungs, percentage of injected dose per whole tissue",[4]; 5 min,1.65±0.05 %ID
same,"Uptake in muscles, percentage of injected dose per whole tissue",[4]; 5 min,8.02±0.82 %ID
same,"Uptake in pancreas, percentage of injected dose per whole tissue",[4]; 5 min,0.9±0.04 %ID
same,"Uptake in stomach, percentage of injected dose per whole tissue",[4]; 5 min,0.35±0.02 %ID
same,"Uptake in bladder, percentage of injected dose per whole tissue",[4]; 60 min,41.28±3.50 %ID
same,"Uptake in brain, percentage of injected dose per whole tissue",[4]; 60 min,0.38±0.01 %ID
same,"Uptake in heart, percentage of injected dose per whole tissue",[4]; 60 min,5.05±0.01 %ID
same,"Uptake in intestines, percentage of injected dose per whole tissue",[4]; 60 min,2.35±0.01 %ID
same,"Uptake in kidneys, percentage of injected dose per whole tissue",[4]; 60 min,35.6 %ID and 35.6±4.06 %ID
same,"Uptake in liver, percentage of injected dose per whole tissue",[4]; 60 min,9.72±1.62 %ID
same,"Uptake in lungs, percentage of injected dose per whole tissue",[4]; 60 min,1.12±0.02 %ID
same,"Uptake in muscles, percentage of injected dose per whole tissue",[4]; 60 min,5.17±1.12 %ID
same,"Uptake in pancreas, percentage of injected dose per whole tissue",[4]; 60 min,0.01±0.0 %ID
same,"Uptake in stomach, percentage of injected dose per whole tissue",[4]; 60 min,0.02±0.01 %ID
same,"Uptake in bladder, percentage of injected dose per whole tissue",[4]; 120 min,72.30±5.20 %ID
same,"Uptake in brain, percentage of injected dose per whole tissue",[4]; 120 min,0.07±0.00 %ID
same,"Uptake in heart, percentage of injected dose per whole tissue",[4]; 120 min,1.03±0.00 %ID
same,"Uptake in intestines, percentage of injected dose per whole tissue",[4]; 120 min,0.5±0.00 %ID
same,"Uptake in kidneys, percentage of injected dose per whole tissue",[4]; 120 min,18.1 %ID and 18.1±2.65 %ID
same,"Uptake in liver, percentage of injected dose per whole tissue",[4]; 120 min,3.28±0.05 %ID
same,"Uptake in lungs, percentage of injected dose per whole tissue",[4]; 120 min,0.25±0.00 %ID
same,"Uptake in muscles, percentage of injected dose per whole tissue",[4]; 120 min,3.02±0.82 %ID
same,"Uptake in pancreas, percentage of injected dose per whole tissue",[4]; 120 min,0.00±0.02 %ID
same,"Uptake in stomach, percentage of injected dose per whole tissue",[4]; 120 min,0.01±0.00 %ID
same,"Injected dose found in the urine and stomach, lungs, liver and intestines",[4]; [6],less than 50%
same,Remaining radioactivity located in the circulating blood,[4]; [6],approximately 8%
same,Duration of continued accumulation of radioactivity in the kidneys (PET),[5],approximately 60 min
